These results are taken from patent publication US20240400506A1, “DIROXIMEL FUMARATE PARTICLES HAVING IMPROVED FLOW PROPERTIES AND METHODS OF MAKING SAME” (BIOGEN MA INC., priority 2021, published 2024).

Counter-ions that a name gives are not always drawn.

The nature of series [1]: Ring shear test: flow function coefficient and cohesion (Jenike-Johanson RST-XS, ASTM D6773-16). The format is physicochemical. To be noted: neat particles; for average cohesion: four lots (FIG. 3); for average FFc (flow function coefficient): four lots, pre-load 3 kPa (FIG. 2). An excerpt:
“Flow function”, “flow function coefficient”, or FFc is a parameter commonly used to rank the flowability of a particulate sample, which could be a sample of neat API particles or a blend containing API particles plus additives. • Powder flowability is ranked as follows: • FFc<1 not flowing • 1<FFc<2 very cohesive • 2<FFc<4 Cohesive • 4<FFc<10 easy flowing • FFc>10 free flowing The measurement of FFc and Cohesion outlined below follows the procedures described in ASTM D6773-16. […] To test FFc and Cohesion, a particulate sample is added to a commercially available ring shear testing device, such as a Jenike-Johanson RST-XS ring shear tester. Such testing is familiar to the person of ordinary skill in the art. In general, the powder is loaded into an annular trough and a consolidated powder bed is formed. A normal stress (σp) is applied to the consolidated powder bed and the pre-shear stress (ζp) is measured. The normal stress is applied as a vertical load through an annular lid. The shear cell rotates relative to the lid and the torque necessary for shearing is measured. Repeat measurements with a series of values of normal stress are applied. When the measured shear stress values (Y-axis) are plotted as function of applied normal stress values (X-axis), the linear relation between them is called the yield locus. The yield locus line can be used to determine a unique relationship between normal stress and shear stress; this is known as a Mohr circle. The yield locus line represents a tangential line of all Mohr circles. The outer larger radius circle corresponds to pre-shear conditions (σp, ζp) and defines the Major Principal Stress, MPS (σ1). The smaller radius circle defines the Unconfined Yield Stress, UYS (σc). Flow function coefficient or FFc is the ratio of Major Principle Stress (MPS) to the Unconfined Yield Strength (UYS): Cohesion is the propensity for particles within a sample to self-associate or “stick together”. The ring shear tester measures cohesion at the same time that it measure FFc. The intercept of yield locus line at zero normal stress (i.e., where the extrapolation of the yield locus line intercepts the Y axis) is known as powder cohesion, and is expressed in Pascal (Pa) units. Lower cohesion is associated with better powder flowability. Further, cohesion predicts how particulate samples will behave when stored, for example when stored in a silo. […] The flow function coefficient (FFc) was measured as described above to quantify the flow properties of neat diroximel fumarate particles of Example 1 (dry milled) and Example 2 (wet milled and ripened). […]

A short description of series [2]: Particle size distribution (volume diameter D10/D50/D90, span). The series is classed as physicochemical. To be noted: for D10 (values across lots) / span (values across lots): range over the lots of the example; for Final PSD after ripening D10 / Final PSD after ripening D50 / Final PSD after ripening D90: after ripening at 40, 43 or 48 °C. As for the experimental part: Particle size is expressed in terms of volume diameter, which is used to provide a dimensional description of particles which are non-spherical. “Volume diameter” refers to the diameter of a sphere with equal volume of the non-spherical particle. Particle size can be measured according to methods well known in the art, including a laser diffraction technique that correlates light scattering to particle volume on which effective length or effective diameter is calculated.
Particle size distribution is expressed in terms of D50, D10, D90 and span. “Span” is a measure for particle size distribution. It is calculated according to the following equation: […]
“D50”, also known as the median diameter, corresponds to the value under which 50% of the particles has a lower volume diameter. “D90” corresponds to the value under which 90% of the particles has a lower volume diameter. “D10” corresponds to the value under which 10% of the particles has a lower volume diameter.

Setting [3] is: final product, wet milled and ripened in IPAC/IPA, 43 °C.
Where [4] appears, read: dry milled API, representative commercial lot.
The mark [5] stands for this setting: dry milled API, (D90 − D10)/D50.
Where [6] appears, read: final PSD after ripening, (D90 − D10)/D50.

`COC(=O)/C=C/C(=O)OCCN1C(=O)CCC1=O` [Example 1, diroximel fumarate]: in series [1], the average cohesion is listed as 270 Pa and the “average FFc (flow function coefficient)” value is recorded as “less than 4”. For the same compound, in series [2], the “D10 (values across lots)” value is given as 16-18 μm and the “span (values across lots)” value is reported as 2.9-3.4.
For `COC(=O)/C=C/C(=O)OCCN1C(=O)CCC1=O` [Example 2, diroximel fumarate], in series [1], the average cohesion is 219 Pa and the “average FFc (flow function coefficient)” value is on record as “about 4”. Further, in series [2], the “D10 (values across lots)” value is recorded as 37.2-41.0 μm and the “span (values across lots)” value was 1.4-1.7.
With `COC(=O)/C=C/C(=O)OCCN1C(=O)CCC1=O` [Example 6, diroximel fumarate], the “median particle size D50, in-process after wet milling” value in series [2] (IPAC/IPA slurry, after 23 volume turnovers, before ripening) was determined as 43 microns. The compound also showed a Span in series [2] (final product, wet milled and ripened in IPAC/IPA) of 1.4. For the same compound, in series [2] (setting [3]), the D10 is on record as 40 μm, the D50 was found to be 92 μm and the D90 turned out to be 173 μm.
As to `COC(=O)/C=C/C(=O)OCCN1C(=O)CCC1=O` [compound 1, diroximel fumarate], in series [2], the “Final PSD after ripening D10” value was determined as 37.2 μm, the “Final PSD after ripening D50” value worked out at 89.3 μm and the “Final PSD after ripening D90” value is listed as 162.5 μm. Besides, in series [2] (before ripening), the “PSD after wet milling D10” value turned out to be 11.6 μm, the “PSD after wet milling D50” value came out at 53.0 μm and the “PSD after wet milling D90” value is on record as 155 μm. Moreover, in series [2] (setting [4]), the D10 amounted to 17 μm, the D50 was 96 μm and the D90 came out at 347 μm. In series [2] (setting [5]), this compound registered a Span of 3.4. Also, the Span in series [2] (setting [6]) is reported as 1.4.
Consider `COC(=O)/C=C/C(=O)OCCN1C(=O)CCC1=O` [compound 2, diroximel fumarate], for which, in series [2], the “Final PSD after ripening D10” value came to 40.7 μm, the “Final PSD after ripening D50” value is 96.1 μm and the “Final PSD after ripening D90” value came to 204.5 μm. In series [2] (before ripening), the “PSD after wet milling D10” value is recorded as 12.4 μm, the “PSD after wet milling D50” value was determined as 66.3 μm and the “PSD after wet milling D90” value is on record as 179 μm. Also, in series [2] (setting [4]), the D10 stood at 17 μm, the D50 is 106 μm and the D90 is on record as 347 μm. Besides, in series [2] (setting [5]), the Span came to 3.1. Also, the Span in series [2] (setting [6]) was 1.7.
Take `COC(=O)/C=C/C(=O)OCCN1C(=O)CCC1=O` [compound 3, diroximel fumarate]: in series [2], the “Final PSD after ripening D10” value is listed as 41.0 μm, the “Final PSD after ripening D50” value came out at 111.9 μm and the “Final PSD after ripening D90” value is 222.9 μm. Besides, in series [2] (before ripening), the “PSD after wet milling D10” value amounted to 9.15 μm, the “PSD after wet milling D50” value came to 35.2 μm and the “PSD after wet milling D90” value was 116 μm. Moreover, in series [2] (setting [4]), the D10 is reported as 18 μm, the D50 turned out to be 101 μm and the D90 came to 307 μm. The Span in series [2] (setting [5]) was determined as 2.9. Further, the Span in series [2] (setting [6]) is reported as 1.6.
In series [2] (setting [4]), `COC(=O)/C=C/C(=O)OCCN1C(=O)CCC1=O` [compound 4, diroximel fumarate] showed a D10 of 16 μm, a D50 of 95 μm and a D90 of 302 μm. Further, the Span in series [2] (setting [5]) stood at 3.0.
